Experimental data taken from US5972933A, “Method of treating microbial infections” (Ed. Geistlich Sohne AG Fur Chemische Industrie, priority 1998, dated 1999).
In brackets after ≈: the same amount, converted by molar mass. Entries after “also recorded” stand apart in the source; their conditions may differ. Like-named read-outs stand apart in the source and are kept apart here.

Assays:
Enterococcus faecalis = assay: Taurolidine in vitro susceptibility, E. faecalis (Example 4); assay type: cell-based; conditions: E. faecalis, all strains
Description: (§1) The in vitro susceptibility to taurolidine of a panel of clinical isolates and reference strains of Enterococcus faecium (n=20,7 strains vancomycin resistant) and Enterococcus faecalis (n-53,5 strains vancomycin resistant) has been examined. […] In all cases, the Minimum Bacteriocidal Concentration (MBC) of taurolidine was within 2 dilutions of the corresponding value for MIC confirming a bactericidal mode of action. In vitro resistance to taurolidine was not observed.

E. faecalis = assay: Two percent taurolidine solution tested against bacteria, E. faecalis (Example 5); assay type: cell-based; conditions: Enterococcus faecalis, 24 h, 5×10^4 CFU/well, one line per sample (strain)
Protocol: Two percent taurolidine solution was tested against various bacteria at 5×10^4 CFU/well, according to Manual of Clinical Microbiology, 6th edition, P. R. Murray et al., pp. 1334-1335.

bacteria and fungi = assay: Antimicrobial activity (general statements); assay type: cell-based
[1] = cited from earlier work
Enterococcus faecium = assay: Taurolidine in vitro susceptibility, E. faecium (Example 4); assay type: cell-based
Description: as §1

`O=S1(=O)CCN(CN2CCS(=O)(=O)NC2)CN1` [Taurolidine] showed an MIC (Enterococcus faecalis; read-out: MIC, Avg.) of 310 µg/mL (≈ 1090 µM), an MIC (Enterococcus faecalis; read-out: MIC, Max.) of 500 µg/mL (≈ 1760 µM) and an MIC (Enterococcus faecalis; read-out: MIC, Mean) of 310 µg/mL (≈ 1090 µM). It also gave an MIC (Enterococcus faecalis; read-out: MIC, Median) of 375 µg/mL (≈ 1320 µM), an MIC (Enterococcus faecalis; read-out: MIC, Min.) of 125 µg/mL (≈ 440 µM) and an MIC (Enterococcus faecalis; read-out: MIC, Mode) of 375 µg/mL (≈ 1320 µM). The MBC (E. faecalis) was 500 µg/mL (≈ 1760 µM), the “rate of bacterial killing” value (bacteria and fungi) was “kills bacteria slowly” and the resistance development (bacteria and fungi) was “Resistance has not been observed either in vivo or in vitro; also recorded: no resistance development by microbes has been observed”. For the same compound, the “in vitro effectiveness against bacterial strains” value (bacteria and fungi; in vitro, including multi-resistant strains, VRE and MRSA) was “effective against all gram negative and gram positive bacterial strains tested to-date”, the “in vitro effectiveness against antibiotic-resistant pathogens” value (bacteria and fungi; in vitro, pathogens resistant to methicillin and vancomycin) was “fully effective in vitro” and the antifungal activity (bacteria and fungi; yeast-like and filamentous fungi) was “useful activity against most yeast-like and filamentous fungi”. The half-life in vivo [1] was “short half-life in vivo”, the MIC (Enterococcus faecium; E. faecium strains, read-out: MIC range) was 95 to 375 µg/mL (≈ 334 to 1320 µM) and the MBC (Enterococcus faecium; E. faecium, VAN R strains, read-out: MBC, Avg.) was 446 µg/mL (≈ 1570 µM). The MBC (Enterococcus faecium; E. faecium, VAN R strains, read-out: MBC, Max.) was 500 µg/mL (≈ 1760 µM), the MBC (Enterococcus faecium; E. faecium, VAN R strains, read-out: MBC, Mean) was 446 µg/mL (≈ 1570 µM) and the MBC (Enterococcus faecium; E. faecium, VAN R strains, read-out: MBC, Median) was 500 µg/mL (≈ 1760 µM). It also gave an MBC (Enterococcus faecium; E. faecium, VAN R strains, read-out: MBC, Min.) of 375 µg/mL (≈ 1320 µM), an MBC (Enterococcus faecium; E. faecium, VAN R strains, read-out: MBC, Mode) of 500 µg/mL (≈ 1760 µM) and an MIC (Enterococcus faecium; E. faecium, VAN R strains, read-out: MIC, Avg.) of 161 µg/mL (≈ 566 µM). For the same compound, the MIC (Enterococcus faecium; E. faecium, VAN R strains, read-out: MIC, Max.) was 250 µg/mL (≈ 879 µM), the MIC (Enterococcus faecium; E. faecium, VAN R strains, read-out: MIC, Mean) was 161 µg/mL (≈ 566 µM) and the MIC (Enterococcus faecium; E. faecium, VAN R strains, read-out: MIC, Median) was 95 µg/mL (≈ 334 µM). The MIC (Enterococcus faecium; E. faecium, VAN R strains, read-out: MIC, Min.) was 95 µg/mL (≈ 334 µM), the MIC (Enterococcus faecium; E. faecium, VAN R strains, read-out: MIC, Mode) was 95 µg/mL (≈ 334 µM) and the MBC (Enterococcus faecium; E. faecium, VAN S strains, read-out: MBC, Avg.) was 666 µg/mL (≈ 2340 µM). The MBC (Enterococcus faecium; E. faecium, VAN S strains, read-out: MBC, Max.) was 1000 µg/mL (≈ 3520 µM), the MBC (Enterococcus faecium; E. faecium, VAN S strains, read-out: MBC, Mean) was 666 µg/mL (≈ 2340 µM) and the MBC (Enterococcus faecium; E. faecium, VAN S strains, read-out: MBC, Median) was 750 µg/mL (≈ 2640 µM). It also gave an MBC (Enterococcus faecium; E. faecium, VAN S strains, read-out: MBC, Min.) of 500 µg/mL (≈ 1760 µM), an MBC (Enterococcus faecium; E. faecium, VAN S strains, read-out: MBC, Mode) of 750 µg/mL (≈ 2640 µM) and an MIC (Enterococcus faecium; E. faecium, VAN S strains, read-out: MIC, Avg.) of 323 µg/mL (≈ 1140 µM). The MIC (Enterococcus faecium; E. faecium, VAN S strains, read-out: MIC, Max.) was 375 µg/mL (≈ 1320 µM), the MIC (Enterococcus faecium; E. faecium, VAN S strains, read-out: MIC, Mean) was 323 µg/mL (≈ 1140 µM) and the MIC (Enterococcus faecium; E. faecium, VAN S strains, read-out: MIC, Median) was 375 µg/mL (≈ 1320 µM). It also gave an MIC (Enterococcus faecium; E. faecium, VAN S strains, read-out: MIC, Min.) of 125 µg/mL (≈ 440 µM), an MIC (Enterococcus faecium; E. faecium, VAN S strains, read-out: MIC, Mode) of 375 µg/mL (≈ 1320 µM) and an MBC (Enterococcus faecium; E. faecium, all strains, read-out: MBC, Avg.) of 581 µg/mL (≈ 2040 µM). For the same compound, the MBC (Enterococcus faecium; E. faecium, all strains, read-out: MBC, Max.) was 1000 µg/mL (≈ 3520 µM), the MBC (Enterococcus faecium; E. faecium, all strains, read-out: MBC, Mean) was 581 µg/mL (≈ 2040 µM) and the MBC (Enterococcus faecium; E. faecium, all strains, read-out: MBC, Median) was 500 µg/mL (≈ 1760 µM). It also gave an MBC (Enterococcus faecium; E. faecium, all strains, read-out: MBC, Min.) of 375 µg/mL (≈ 1320 µM), an MBC (Enterococcus faecium; E. faecium, all strains, read-out: MBC, Mode) of 500 µg/mL (≈ 1760 µM) and an MIC (Enterococcus faecium; E. faecium, all strains, read-out: MIC, Avg.) of 260 µg/mL (≈ 914 µM). It also gave an MIC (Enterococcus faecium; E. faecium, all strains, read-out: MIC, Max.) of 375 µg/mL (≈ 1320 µM), an MIC (Enterococcus faecium; E. faecium, all strains, read-out: MIC, Mean) of 260 µg/mL (≈ 914 µM) and an MIC (Enterococcus faecium; E. faecium, all strains, read-out: MIC, Median) of 250 µg/mL (≈ 879 µM). The MIC (Enterococcus faecium; E. faecium, all strains, read-out: MIC, Min.) was 95 µg/mL (≈ 334 µM) and the MIC (Enterococcus faecium; E. faecium, all strains, read-out: MIC, Mode) was 375 µg/mL (≈ 1320 µM).
